The values below are quoted from earlier work in patent US11246819B2, “Compositions and methods for inhibiting biofilm deposition and production” (THE TRUSTEES OF THE UNIVERSITY OF PENNSYLVANIA, priority 2016, dated 2022).

Where no end group is shown, it is not given here.

The test system of data set [1] is human mast cells.
The subject of data set [2] is biofilm. The note with it: 3 min incubation with biofilms, mutanase removed, then 6 hr incubation.

On to retrocyclin, for which the “entry into human mast cells and degranulation” value in data set [1] is “enter human mast cells and induce degranulation”. In the case of “protegrin: cysteine-rich, 18-residue β-sheet antimicrobial peptide (RGGRLCYCRRRFCVCVGR; not fully specified (bridges); ends and bridges not checked; UniProt P32194 131-148, looked up)”, the potency when linearized result is “lost potency”. Further, the “entry into human mast cells and degranulation” value in data set [1] was “enter human mast cells and induce degranulation”.

B1: mutanase from Paenibacillus sp. strain RM1: bacterial mutanase, codon optimized for chloroplast expression (SEQ ID NO: 1) (protein)
chain: AGGPNLTPGKPITASGQSQTYSPQNVKDGNQNTYWESTNNAFPQWIQVDLGASTGIDQIVLKLPASWEARTQTLAVQGSLNGSTFTDIVGSANYVFSPSVGNNTVTINFTATSTRYVRLYVTANTGWPAAQLSEFEIYGSGDQTPAPDTYQAESAALSGGAKVNTDHAGYIGTGFVDGYWTQGATTTFSVNAPTAGNYDVTLRYGNATGSNKTVSLYVNGAKIRQTTLPSLPNWDSWSSKTETLNLNAGSNTIAYKYDPGDSGNVNLDQITVEASTSTPTPTPSPTPTPTPTPTPTPTPTPTPTPTPTPTPTPTPTPTPTPPPGGNIAIGKSISASSHTQTYVAENANDNDVNTYWEGGGNPSTLTLDLGANYNITSIVLKLNPSSIWAARTQTIQVLGHDQNTTTFSNLVSAKSYSFDPASGNTVTIPVTATVKRLQLNITSNSGAPAGQVAEFQVFGTPAPNPDLTITGMSWSPSSPVETDAITLNATVKNNGNASAAATTVNFYLNNELAGSAPVAALAAGASATVPLNVGAKTAATYAVGAKVDESNAVIELNESNNSYTNPASLVVAPVSSSDLVGTVSWTPSTPIANNAVSFNVNLKNQGTIASAGGSHGVTVVLKNASGSTVQTFSGSYTGSLAPGASVNITLPGTWTAAAGSYTVTATVAADANELPIKQANNANTASLTVYSARGASMPYSRYDTEDATLGGGATLKSAPTFDQALTASEATGQLYAALPSNGSYLQWTVRQGQGGAGVTMRFTMPDSADGMGLNGSLDVYVNGTKVKTVSLTSYYSWQYFSGDMPGDAPSAGRPLFRFDEVHWKLDTPLKPGDTIRIQKNNGDSLEYGVDFIEIEPVPAAISRPANSVSVTDYGAVPNDGQDDLTAFKAAVNAAVASDKILYIPEGTFHLGNMWEIGSVSNMIDHITITGAGIWYTNIQFTNANPASGGISLRITGKLDFSNVYLNSNLRSRYGQNAVYKGFMDNFGTNSVIRDVWVEHFECGFWVGDYGHTPAIRASGLLIENSRIRNNLADGVNFAQGTSNSTVRNSSLRNNGDDALAVWTSNTNGAPEGVNNTFSYNTIENNWRAGGIAFFGGSGHKADHNYIVDCVGGSGIRMNTVFPGYHFQNNTGIVFSDTTIVNCGTSKDLYNGERGAIDLEASNDAIRNVTFTNIDIINSQRDAIQFGYGGGFTNIVFNNININGTGLDGVTTSRFSGPHLGAAIFTYTGNGSATFNNLRTSNIAYPNLYYIQSGFNLIINNHHHHHH
modifications: codon optimized mutanase
On to B1, for which, in data set [2], the biofilm degradation entry is “effectively degraded”.
